Test results taken from publication PMC7932537, “Quantitative profiling of protease specificity” (PLoS Computational Biology, 2021).

Columns and labels:
[1] = tested on: MMP-2; assay: Substrate phage display with NGS: relative probability (RP) of P3-P1' tetramer clusters; format: biochemical, human; details: MMP2;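 further: ratio of tetramer probability after protease selection to that in naive phage library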
[2] = target: T1, MMP-2 (Homo sapiens, UniProt P08253); assay: K(obs) of individual phage substrates (set of 1369); format: biochemical; details: MMP2
T1 sequence (P08253 110-660): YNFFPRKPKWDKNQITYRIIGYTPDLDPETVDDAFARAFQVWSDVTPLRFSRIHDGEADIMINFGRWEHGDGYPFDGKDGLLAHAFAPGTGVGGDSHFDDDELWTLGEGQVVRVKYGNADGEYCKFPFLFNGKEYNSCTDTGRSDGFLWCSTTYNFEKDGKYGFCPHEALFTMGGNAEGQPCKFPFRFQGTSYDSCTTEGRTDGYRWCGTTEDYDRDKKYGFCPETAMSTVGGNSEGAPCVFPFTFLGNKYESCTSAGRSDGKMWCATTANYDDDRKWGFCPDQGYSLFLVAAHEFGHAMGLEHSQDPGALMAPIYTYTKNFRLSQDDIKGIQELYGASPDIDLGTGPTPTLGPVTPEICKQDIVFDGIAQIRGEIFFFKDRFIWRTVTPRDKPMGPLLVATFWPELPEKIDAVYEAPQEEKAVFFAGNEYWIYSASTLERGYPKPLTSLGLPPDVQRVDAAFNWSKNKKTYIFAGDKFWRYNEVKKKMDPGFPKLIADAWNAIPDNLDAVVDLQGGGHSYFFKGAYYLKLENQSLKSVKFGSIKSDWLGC

[3] = target: MMP-9 (Homo sapiens, UniProt P14780); assay: as above; format: biochemical; details: MMP9
[4] = RP of the P3-P1' tetramer contained in the substrate (substrate phage display with NGS)
[5] = individual phage substrates, set of 1369 peptides, cleavage position marked by hyphen in sequence
[6] = individual phage substrates, set of 1369 peptides, hyphen in sequence marks cleavage position
[7] = RP of the P3-P1' tetramer contained in the substrate
[8] = individual phage substrate of the set of 1369 peptides, cleavage position marked by '-'
[9] = individual phage substrate of the set of 1369 peptides, dash in the sequence marks the cleavage position

Chain of MMP-9 (P14780 94-707): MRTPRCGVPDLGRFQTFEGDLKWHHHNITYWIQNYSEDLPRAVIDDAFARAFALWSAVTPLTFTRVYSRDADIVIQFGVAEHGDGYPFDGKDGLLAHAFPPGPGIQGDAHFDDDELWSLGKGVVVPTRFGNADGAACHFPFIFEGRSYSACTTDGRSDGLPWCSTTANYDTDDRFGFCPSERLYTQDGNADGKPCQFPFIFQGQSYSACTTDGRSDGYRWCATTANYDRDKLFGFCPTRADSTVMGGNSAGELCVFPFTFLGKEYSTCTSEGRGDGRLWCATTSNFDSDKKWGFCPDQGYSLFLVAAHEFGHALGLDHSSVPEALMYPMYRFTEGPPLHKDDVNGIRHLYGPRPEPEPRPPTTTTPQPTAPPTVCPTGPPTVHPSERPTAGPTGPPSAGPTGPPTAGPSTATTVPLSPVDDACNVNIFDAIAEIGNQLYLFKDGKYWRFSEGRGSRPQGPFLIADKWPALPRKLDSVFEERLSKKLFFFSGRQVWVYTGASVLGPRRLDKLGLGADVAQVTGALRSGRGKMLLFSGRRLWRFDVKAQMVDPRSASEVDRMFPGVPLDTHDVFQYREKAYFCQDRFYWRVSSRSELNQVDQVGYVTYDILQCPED

Substance | relative probability (RP) [1, 4] | Kobs [2, 5] [M⁻¹ s⁻¹] | Kobs [3, 6] [M⁻¹ s⁻¹] | relative probability (RP) [1, 7] | Kobs [2, 8] [M⁻¹ s⁻¹] | Kobs [3, 9] [M⁻¹ s⁻¹]
GSTRN-LITAS | 12.3403 | 1870.4 | 990.764 |  |  | 
GSVHH-LITAS |  |  |  | 14.1228 | 0 | 0
GSVMN-LTASG | 18.6016 | 3344.37 | 2409.72 |  |  | 
GSVNY-LVTAS | 8.427 | 0 | 0 |  |  | 
GSVWA-LTASG | 12.7502 | 1870.4 | 4922.1 |  |  | 
GSVWH-VRTAS | 0 | 231.616 | 0 |  |  | 
GTALP-LRTAS |  |  |  | 22.1772 | 6396.07 | 3253.29
GTLAA-MSTAS | 30.6825 | 4205.91 | 0 |  |  | 
GTLMG-LYTAS |  |  |  | 28.5499 | 7015.91 | 171.876
GTLRS-LITAS |  |  |  | 15.1373 | 12792.1 | 1465.65
GTPMQ-LYTAS |  |  |  | 27.6586 | 5667.28 | 12792.1
GTPSA-LTTAS | 36.1873 | 12792.1 | 12792.1 |  |  | 
GTPYG-LVTAS |  |  |  | 32.9966 | 12792.1 | 12792.1
GTPYP-LRTAS | 30.8058 | 12792.1 | 12792.1 |  |  | 
GTVRS-LITAS | 12.3051 | 8941.32 | 2476.66 |  |  | 
GVARP-LSTAS |  |  |  | 27.8706 | 5090.5 | 1610.61
GVHFH-LITAS |  |  |  | 0.09413 | 0 | 0
GVIRF-LRTAS |  |  |  | 12.1004 | 10866.7 | 9740.44
GVLQK-LVTAS | 13.1993 | 654.784 | 0 |  |  | 
GVLRM-LSTAS |  |  |  | 9.0498 | 0 | 951.362
GVLYH-LQTAS | 4.529 | 171.876 | 292.668 |  |  | 
GVVLN-LETAS |  |  |  | 18.9065 | 1196.62 | 1465.65

Substance | relative probability (RP) [1, 4] | Kobs [2, 5] [M⁻¹ s⁻¹] | Kobs [3, 6] [M⁻¹ s⁻¹] | relative probability (RP) [1, 7] | Kobs [2, 8] [M⁻¹ s⁻¹] | Kobs [3, 9] [M⁻¹ s⁻¹]
GVVRG-LSTAS |  |  |  | 29.092 | 9740.44 | 4613.14
GVYAH-LLTAS |  |  |  | 18.7061 | 323.705 | 171.876
GVYGA-LRTAS |  |  |  | 28.8499 | 12792.1 | 142.481
GVYQG-LRTAS |  |  |  | 4.332 | 1373.05 | 799.117
GVYRH-MRTAS | 0.3212 | 0 | 0 |  |  | 
GWAYN-MRTAS | 10.8408 | 292.668 | 2280.5 |  |  | 
GWPAG-LTTAS |  |  |  | 36.0156 | 12792.1 | 12792.1
GWPNA-FLTAS |  |  |  | 16.8865 | 5667.28 | 231.616
GWPRE-LKTAS |  |  |  | 31.9513 | 12792.1 | 12792.1
GWVSY-LKTAS | 20.2936 | 9740.44 | 0 |  |  | 
GWWMN-LTASG | 0 | 1071.29 | 836.403 |  |  | 
GYARL-LRTAS |  |  |  | 1.104 | 484.315 | 690.17
GYFGN-LRTAS | 26.0275 | 7015.91 | 0 |  |  | 
GYIQS-LFTAS | 25.2682 | 5461.43 | 0 |  |  | 
GYPLH-LQTAS | 34.1843 | 9740.44 | 8941.32 |  |  | 
GYPRA-FSTAS |  |  |  | 31.8957 | 12792.1 | 12792.1
GYPRN-IGTAS |  |  |  | 31.9621 | 8941.32 | 7386.83
GYPWA-WRTAS |  |  |  | 10.3227 | 1327.88 | 4922.1
GYPWS-LSTAS |  |  |  | 28.5684 | 2218.08 | 7015.91
HAHAS-LTASG | 26.2573 | 12792.1 | 142.481 |  |  | 
HAPLN-FTASG |  |  |  | 28.3679 | 12792.1 | 10866.7
HAPRG-STASG |  |  |  | 16.3331 | 7015.91 | 7386.83
